Molecules are shown by their SMILES.

The text below walks through data of ChEMBL document CHEMBL1146125, “Ultra-potent P1 modified arylsulfonamide HIV protease inhibitors: the discovery of GW0385” (Bioorg Med Chem Lett, 2006).

Series [1] relates to MT4. Briefly: Antiviral activity against nelfinavir resistant HIV1 14330 in MT4 cells. The series is classed as functional, cell-based. The conditions noted are these: Homo sapiens.
A short description of series [2]: Clearance in rat at 1 mg/kg, iv. The conditions noted are these: in vivo. More on the design: dose 1 mg/kg, route intravenous. The series is classed as ADME, organism-based.
Series [3] relates to MT4. The series is described as follows: Antiviral activity against multi PI resistant HIV1 EP14 in MT4 cells. The series is classed as functional, cell-based. The conditions noted are these: Homo sapiens.
Series [4] is described as follows: Half life in dog at 1 mg/kg. Type of series: ADME, organism-based, Canis lupus familiaris. More on the design: dose 1 mg/kg. The note with it: in vivo.
Series [5] is described as follows: Oral bioavailability in rat at 1 mg/kg. Type of series: ADME, organism-based. The conditions noted are these: in vivo.
Series [6] can be described thus: Half life in rat at 1 mg/kg. Also on record: dose 1 mg/kg. The series is classed as ADME, organism-based. The note with it: in vivo.
In series [7] the test system is MT4. Briefly: Antiviral activity against HIV1 I54V in MT4 cells. The series is classed as functional, cell-based. The note with it: Homo sapiens.
The test system of series [8] is MT4. Briefly: Antiviral activity against amprenavir resistant HIV1 468 in MT4 cells. Type of series: functional, cell-based. The conditions noted are these: Homo sapiens.
The subject of series [9] is MT4. The series is described as follows: Antiviral activity against HIV1 EP13 in MT4 cells. The series is classed as functional, cell-based. The note with it: Homo sapiens.
Series [10] relates to MT4. The series is described as follows: Antiviral activity against triple multi PI resistant HIV1 in MT4 cells. The series is classed as functional, cell-based. The conditions noted are these: Homo sapiens.
Series [11] in a line: Half life in dog at 1 mg/kg co-administered with 4 mg/kg ritonavir. Type of series: ADME, organism-based, Canis lupus familiaris. The note with it: in vivo.
Series [12] relates to MT4. Briefly: Antiviral activity against multi PI resistant HIV1 31246 in MT4 cells. The note with it: Homo sapiens. Type of series: functional, cell-based.
Series [13] in a line: Half life in rat at 1 mg/kg co-administered with 4 mg/kg ritonavir. The conditions noted are these: in vivo. Type of series: ADME, organism-based.
The nature of series [14]: Oral bioavailability in dog at 1 mg/kg. The series is classed as ADME, organism-based, Canis lupus familiaris. The note with it: in vivo.
The nature of series [15]: Bioavailability in rat at 1 mg/kg co-administered with 4 mg/kg ritonavir. Type of series: ADME, organism-based. The note with it: in vivo.
Series [16] in a line: Clearance in dog at 1 mg/kg, iv. Type of series: ADME, organism-based, Canis lupus familiaris. Also on record: dose 1 mg/kg, route intravenous. The note with it: in vivo.
Series [17] relates to MT4. The series is described as follows: Antiviral activity against HIV1 I50V in MT4 cells. The series is classed as functional, cell-based. The conditions noted are these: Homo sapiens.
For series [18], the system named is MT4. The series is described as follows: Antiviral activity against indinavir resistant HIV1 30813 in MT4 cells. Type of series: functional, cell-based. The note with it: Homo sapiens.
Series [19] in a line: Bioavailability in dog at 1 mg/kg co-administered with 4 mg/kg ritonavir. The note with it: in vivo. The series is classed as ADME, organism-based, Canis lupus familiaris.

Broadly, the IC50 is the concentration that gives 50% inhibition. High values mean a need for much substance, low ones inhibition by little substance. As usually defined, the clearance is a measure of how efficiently the substance is removed, as volume per time. High values mean a high capacity for elimination, low ones a low capacity for elimination. As usually defined, the half-life is the time needed for the level to fall by half in the phase considered. By bioavailability is commonly meant the share of a dose that reaches the circulation, judged against a reference dose that is usually intravenous. Turning to `Cc1nc(COc2ccc(C[C@H](NC(=O)O[C@H]3CO[C@H]4OCC[C@H]43)[C@H](O)CN(CC(C)C)S(=O)(=O)c3ccc4c(c3)OCO4)cc2)cs1` [BRECANAVIR], the IC50 in [1] stood at 0.45 nM; in series [3], 0.77 nM; in series [7], 0.22 nM; in series [8] it was 8.2 nM; in series [9], 1.1 nM; in series [10] it was 5.4 nM. Moreover, the IC50 in [12] came to 1.7 nM; in [17] it was 1.6 nM; in [18], 0.46 nM. For the same compound, the figures for the clearance in series [2] and in [16] were 10 mL/min/kg and 19 mL/min/kg, respectively. Moreover, the half-life is 0.87 h in [4], 1.4 h in series [6], 1.2 h in [11] and 1.1 h in series [13]. The bioavailability amounted to 10% in series [5], 20% in series [14], 62% in series [15] and 86% in [19].
